Values joined by “and” are separate entries in the source; they are usually repeats but may differ in a detail not shown here. Equal entries are not always repeated. Inconclusive results and toxic doses are left out. Cut-off read from the data, not from the text of the source: active = T/C of 150% or more; inactive = T/C below 125%.
System: L1210 leukemia ip in BDF1 mice, survival T/C
Experiment: NCI In Vivo Anticancer Drug Screen. Data for tumor model L1210 Leukemia (intraperitoneal) in B6D2F1 (BDF1) mice
Conditions: endpoint: mean survival time, higher = longer survival
How it was run: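 Read-out is survival time, reported as the treated-group measurement over the vehicle-control measurement.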

[1] = dose: 100.0 mg/kg/injection, schedule: Q01DX009 (ip), vehicle: Klucel (hydroxypropylcellulose) (HPC)
[2] = dose: 100.0 mg/kg/injection, schedule: Q04DX003 (ip), vehicle: saline
[3] = dose: 200.0 mg/kg/injection, schedule: Q01DX009 (ip), vehicle: Klucel (hydroxypropylcellulose) (HPC)
[4] = dose: 200.0 mg/kg/injection, schedule: Q04DX003 (ip), vehicle: saline
[5] = dose: 400.0 mg/kg/injection, schedule: Q01DX009 (ip), vehicle: Klucel (hydroxypropylcellulose) (HPC)
[6] = dose: 400.0 mg/kg/injection, schedule: Q04DX003 (ip), vehicle: saline
[7] = dose: 100.0 mg/kg/injection, schedule: Q04DX003 (ip), vehicle: Klucel (hydroxypropylcellulose) (HPC)
[8] = dose: 200.0 mg/kg/injection, schedule: Q04DX003 (ip), vehicle: Klucel (hydroxypropylcellulose) (HPC)
[9] = dose: 400.0 mg/kg/injection, schedule: Q04DX003 (ip), vehicle: Klucel (hydroxypropylcellulose) (HPC)
[10] = dose: 12.5 mg/kg/injection, schedule: Q04DX003 (ip), vehicle: saline with Tween-80

Measured: T/C

CCOC(=O)NC(C(=O)OC)C(=O)OC
inactive: [1] 97 % of control | [2] 100 % of control | [3] 97 % of control | [4] 97 % of control | [5] 97 % of control | [6] 100 % of control

CCc1ccccc1NC(=O)NC(C)C
inactive: [1] 98 % of control | [7] 90 % of control | [3] 91 % of control | [8] 97 % of control | [5] 95 % of control | [9] 92 % of control

CC(C)(C)NCC1CCCC1=O (configuration not stated)
inactive: dose: 100.0 mg/kg/injection, schedule: Q04DX002 (ip), vehicle: gum acacia 101 % of control | dose: 200.0 mg/kg/injection, schedule: Q04DX002 (ip), vehicle: gum acacia 105 % of control

CC(=O)c1cccc(NC(=O)Nc2cccc(C(C)=O)c2)c1
inactive: dose: 2.5 mg/kg/injection, schedule: Q01DX009 (ip), vehicle: saline 101 % of control | dose: 5.0 mg/kg/injection, schedule: Q01DX009 (ip), vehicle: saline 95 % of control | dose: 10.0 mg/kg/injection, schedule: Q01DX009 (ip), vehicle: saline 98 % of control | dose: 20.0 mg/kg/injection, schedule: Q01DX009 (ip), vehicle: saline 93 % of control and 101 % of control | dose: 40.0 mg/kg/injection, schedule: Q01DX009 (ip), vehicle: saline 90 % of control | dose: 80.0 mg/kg/injection, schedule: Q01DX009 (ip), vehicle: saline 93 % of control | dose: 160.0 mg/kg/injection, schedule: Q01DX009 (ip), vehicle: saline 90 % of control | dose: 320.0 mg/kg/injection, schedule: Q01DX009 (ip), vehicle: saline 95 % of control

N#CCC(C#N)C1C=CCC1 (configuration not stated)
inactive: dose: 5.0 mg/kg/injection, schedule: Q01DX001 (ip), vehicle: saline 97 % of control | dose: 10.0 mg/kg/injection, schedule: Q01DX001 (ip), vehicle: saline 97 % of control | [10] 98 % of control

O=C(COCC(=O)N/N=C/c1c(O)ccc2ccccc12)N/N=C/c1c(O)ccc2ccccc12
inactive: [1] 98 % of control | [3] 89 % of control | [5] 95 % of control

CCCCCCCCC1SC1CCCCCCCC(=O)N(C)c1ccccc1 (configuration not stated)
inactive: [2] 97 % of control | [4] 99 % of control | [6] 94 % of control

C(=C\c1ccccc1)/C=N/Nc1nnc(N/N=C/C=C/c2ccccc2)c2ccccc12
inactive: dose: 50.0 mg/kg/injection, schedule: Q01DX001 (ip), vehicle: carboxymethylcellulose (CMC) 102 % of control | dose: 100.0 mg/kg/injection, schedule: Q01DX001 (ip), vehicle: carboxymethylcellulose (CMC) 94 % of control | dose: 200.0 mg/kg/injection, schedule: Q01DX001 (ip), vehicle: carboxymethylcellulose (CMC) 102 % of control | dose: 400.0 mg/kg/injection, schedule: Q01DX001 (ip), vehicle: carboxymethylcellulose (CMC) 90 % of control

Cc1ccc(Oc2ccc(C(=O)O)cc2)cc1
inactive: [7] 96 % of control | [8] 102 % of control | [9] 103 % of control

O=C1c2sccc2-c2cccc3cccc1c23 (tested in a mixture with another compound)
inactive: [7] 96 % of control | [8] 102 % of control | [9] 106 % of control

C1CCC(CC2CCNCC2)CC1
inactive: [10] 105 % of control | dose: 25.0 mg/kg/injection, schedule: Q04DX003 (ip), vehicle: saline with Tween-80 96 % of control | dose: 50.0 mg/kg/injection, schedule: Q04DX003 (ip), vehicle: saline with Tween-80 102 % of control

COC(=O)C(=O)CC(=O)c1cccc([N+](=O)[O-])c1
inactive: dose: 100.0 mg/kg/injection, schedule: Q04DX002 (ip), vehicle: Klucel (hydroxypropylcellulose) (HPC) 103 % of control | dose: 200.0 mg/kg/injection, schedule: Q04DX002 (ip), vehicle: Klucel (hydroxypropylcellulose) (HPC) 95 % of control | dose: 400.0 mg/kg/injection, schedule: Q04DX002 (ip), vehicle: Klucel (hydroxypropylcellulose) (HPC) 95 % of control

OCCOc1nc(OCCO)c(Cl)c(C(Cl)(Cl)Cl)n1
inactive: dose: 100.0 mg/kg/injection, schedule: Q01DX009 (ip), vehicle: saline with Tween-80 98 % of control | dose: 200.0 mg/kg/injection, schedule: Q01DX009 (ip), vehicle: saline with Tween-80 93 % of control | dose: 400.0 mg/kg/injection, schedule: Q01DX009 (ip), vehicle: saline with Tween-80 86 % of control

C=C(Br)CNC(=O)Nc1ccccn1
inactive: [1] 93 % of control | [3] 96 % of control

From PubChem BioAssay AID248 (DTP/NCI, 2004)
